ChEMBL document CHEMBL2073942, “Localization of organic anion transport protein 2 in the apical region of rat retinal pigment epithelium” (Invest Ophthalmol Vis Sci, 2002)
pKi: −log10 of the molar value.

Target: T1, Solute carrier organic anion transporter family member 1A4 (Rattus norvegicus, UniProt O35913)
T1 sequence (O35913 whole entry): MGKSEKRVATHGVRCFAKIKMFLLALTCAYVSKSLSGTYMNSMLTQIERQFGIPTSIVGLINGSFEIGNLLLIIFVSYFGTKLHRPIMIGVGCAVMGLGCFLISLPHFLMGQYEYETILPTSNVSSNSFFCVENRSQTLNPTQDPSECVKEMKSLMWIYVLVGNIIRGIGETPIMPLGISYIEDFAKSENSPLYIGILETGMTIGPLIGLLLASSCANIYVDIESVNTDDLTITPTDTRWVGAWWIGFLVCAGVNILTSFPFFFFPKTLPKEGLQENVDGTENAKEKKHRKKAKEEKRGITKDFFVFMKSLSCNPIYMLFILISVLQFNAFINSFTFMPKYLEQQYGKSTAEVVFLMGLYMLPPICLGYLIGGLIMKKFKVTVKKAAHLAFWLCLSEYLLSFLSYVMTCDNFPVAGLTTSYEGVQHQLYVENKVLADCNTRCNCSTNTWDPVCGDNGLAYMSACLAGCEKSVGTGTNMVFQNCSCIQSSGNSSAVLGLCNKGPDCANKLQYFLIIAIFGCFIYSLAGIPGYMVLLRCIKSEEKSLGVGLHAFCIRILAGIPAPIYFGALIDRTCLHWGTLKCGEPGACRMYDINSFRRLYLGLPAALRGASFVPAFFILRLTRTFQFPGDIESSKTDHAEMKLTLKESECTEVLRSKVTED
Test: TP_TRANSPORTER: inhibition of Digoxin uptake in Xenopus laevis oocytes
Type: functional, cell-based, Oocyte

- pKi: 4.43
SMILES: CC1=C(/C=C/C(C)=C/C=C/C(C)=C/c2cc(/C=C/C=C(C)/C=C/C3=C(C)CCCC3(C)C)cc[n+]2CCO)C(C)(C)CCC1
